Patent US20090317501A1, “Pinus Pinea Plant Extracts For Treating Osteoporosis and the Extraction Process Thereof” (priority 2006, published 2009)

Test system: osteoclastic bone resorption
Assay: Bone resorption screening, CTX release by osteoclasts on bovine bone slices
Type: cell-based, human
Conditions: positive control; DMSO negative control set to 100%; 5 days incubation
Description: Studies have determined that osteoclasts are largely derived from CD14 positive monocytes (J. Haemotol, 1999 July; 106(1):167-70). Clonal analysis of haematopoietic cells by surface phenotypes has been used to further identify osteoclast precursor by characterizing osteoclast like cells distinct from other haematopoietic progenitors (Lee et.al; 1992b Muguruma & Lee; 1988). Surface phenotype analysis has shown that human osteoclasts are derived from CD14 monocytes (Massey & Flanagan, 1999). CD 14 marker is strongly expressed on monocytes, the putative osteoclast precursor in peripheral blood and CD14 positive monocytes have been selected for osteoclastogenesis. (Clin. Sci (Lond) 2000, August, 99 (2): 133-40).
The osteoclasts were isolated as CD 14 positive monocytes and were differentiated into osteoclasts for 10-12 days. Hereafter the osteoclasts were lifted by trypsin, counted and seeded on bovine bone slices at a density of 40,000 cells per bone slice. The osteoclasts were seeded on the cone slices for one day before the plant extracts were added. The osteoclasts were hereby allowed to attach and initiate the resorption activity. […]
The bone resorption experiment was ended after 5 days of incubation and the cell viability was measured by the use of the Alamar blue assay as represented in FIG. 3. […]

CO/C1=C\C(C)=C\[C@@H](C)[C@@H](O)[C@@H](C)C/C(C)=C/C=C/[C@H](OC)[C@@H]([C@@H](C)[C@@H](O)[C@H](C)[C@@]2(O)C[C@@H](O)[C@H](C)[C@@H](C(C)C)O2)OC1=O [Bafilomycin]
remaining bone resorption (CTX release) as % of DMSO control: approximately 8%
